One experiment concerns the target D(2) dopamine receptor (Homo sapiens, UniProt P14416). In words: Binding affinity at cloned human Dopamine receptor D2 expressed in CHO cells, using [125I]iodosulpiride as radioligand. It is filed as cell-based.
A further experiment deals with T1, D(4) dopamine receptor (Homo sapiens, UniProt P21917).
T1 sequence (P21917 whole entry): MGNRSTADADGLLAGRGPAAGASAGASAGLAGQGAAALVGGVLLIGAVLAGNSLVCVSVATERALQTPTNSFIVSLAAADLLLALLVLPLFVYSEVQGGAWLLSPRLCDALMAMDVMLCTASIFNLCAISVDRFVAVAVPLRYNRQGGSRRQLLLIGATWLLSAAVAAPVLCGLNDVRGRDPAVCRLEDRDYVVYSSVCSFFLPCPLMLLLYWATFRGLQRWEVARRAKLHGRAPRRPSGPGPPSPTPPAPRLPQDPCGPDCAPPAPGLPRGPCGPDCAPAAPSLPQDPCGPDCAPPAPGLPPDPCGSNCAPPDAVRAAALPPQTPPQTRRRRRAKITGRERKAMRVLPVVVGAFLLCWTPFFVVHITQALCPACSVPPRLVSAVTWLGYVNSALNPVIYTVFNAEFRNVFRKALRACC
In words: Binding affinity at cloned human Dopamine receptor D4 expressed in HEK 293 cells, using [3H]nemonapride as radioligand. Type of experiment: cell-based, HEK293.

Experiment [1] addresses Dopamine receptors; D2 & D4 (Homo sapiens) (UniProt P14416+P21917). As to the kind of experiment: Selectivity of D2 receptor over D4 receptor. It is filed as protein assay.

Molecules are shown by their SMILES. Where only a bound is given, the exact number is not on record here.

Sequence of D(2) dopamine receptor (P14416 whole entry): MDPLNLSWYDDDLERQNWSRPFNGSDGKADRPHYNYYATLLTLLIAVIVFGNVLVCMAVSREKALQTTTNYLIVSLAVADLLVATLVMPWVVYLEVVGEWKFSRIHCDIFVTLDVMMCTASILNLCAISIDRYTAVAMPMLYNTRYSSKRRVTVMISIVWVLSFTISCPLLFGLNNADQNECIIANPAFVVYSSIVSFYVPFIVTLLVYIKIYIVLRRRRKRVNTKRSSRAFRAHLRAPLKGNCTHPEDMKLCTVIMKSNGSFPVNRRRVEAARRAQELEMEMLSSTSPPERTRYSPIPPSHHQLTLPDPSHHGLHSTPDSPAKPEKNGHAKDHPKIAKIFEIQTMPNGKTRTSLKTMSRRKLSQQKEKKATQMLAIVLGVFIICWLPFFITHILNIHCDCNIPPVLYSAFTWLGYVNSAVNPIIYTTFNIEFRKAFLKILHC
Sequence of Dopamine receptors; D2 & D4 (Homo sapiens) (P14416 whole entry, looked up, one chain of several): as the sequence (P14416 whole entry) above

A word on the Ki: it is a dissociation constant, usually derived from enzyme kinetics or from competition with a known ligand. Lower therefore signals higher affinity. With `CCCC(C)(C)C(=O)NCCCCN1CCN(c2ccc(Cl)cc2)CC1`, the Ki on D(2) dopamine receptor was 1580 nM; at D(4) dopamine receptor, 12.6 nM. In experiment [1], the Selectivity stood at 125.

Regarding `CCCC(C)(C)C(=O)NCCN1CCN(c2ccc(Cl)cc2)CC1`, the Ki was 2510 nM at D(2) dopamine receptor and 7.94 nM on D(4) dopamine receptor. In addition, the Selectivity in experiment [1] is 320.

Regarding `CC(=O)NCCCCN1CCN(c2ccc(Cl)cc2)CC1`, the Ki on D(2) dopamine receptor is 1580 nM; at D(4) dopamine receptor, 1260 nM. Further, the Selectivity in experiment [1] is 1.

Regarding `CC(C)(C)C(=O)NCCCCN1CCN(c2ccc(Cl)cc2)CC1`, the Ki is 2510 nM on D(2) dopamine receptor and 12.6 nM at D(4) dopamine receptor. In addition, the Selectivity in experiment [1] came out at 200.

Take `CC1(C(=O)NCCN2CCN(c3ccc(Cl)cc3)CC2)CCCCC1`: the Ki at D(2) dopamine receptor was 794 nM; on D(4) dopamine receptor it was 7.94 nM. In experiment [1], this compound displayed a Selectivity of 100.

Turning to `CC(C)(C)C(=O)NCCN1CCN(c2ccc(Cl)cc2)CC1`, the Ki at D(2) dopamine receptor is 2510 nM; at D(4) dopamine receptor, 25.1 nM. The Selectivity in experiment [1] was 100.

For `CC(C)(C)C(=O)NCCCCN1CCN(c2ccc(Br)cc2)CC1`, the Ki is 1580 nM at D(2) dopamine receptor and 31.6 nM at D(4) dopamine receptor. In addition, the Selectivity in experiment [1] was 50.

For `COc1ccc(N2CCN(CCCCNC(=O)C(C)(C)C)CC2)cc1`, the values for the Ki at D(2) dopamine receptor and on D(4) dopamine receptor were greater than 10000 nM and 316 nM, respectively. In experiment [1], this compound showed a Selectivity greater than 30.

`CC(C)C(=O)NCCCCN1CCN(c2ccc(Cl)cc2)CC1`: the Ki at D(2) dopamine receptor was 2000 nM; on D(4) dopamine receptor, 126 nM. Also, the Selectivity in experiment [1] was 16.

In the case of `CC(C)(C)C(=O)NCCCCN1CCN(c2cccc(Cl)c2)CC1`, the figures for the Ki on D(2) dopamine receptor and at D(4) dopamine receptor were 251 nM and 100 nM, respectively. Moreover, the Selectivity in experiment [1] came to 3.

As to `CC1CN(CCCCNC(=O)C(C)(C)C)CCN1c1ccc(Cl)cc1` (stereo not drawn), the Ki at D(2) dopamine receptor is 1580 nM; at D(4) dopamine receptor, 63.1 nM.

With `CC(C)(C)C(=O)NCCCCCN1CCN(c2ccc(Cl)cc2)CC1`, the inhibition constant Ki on D(2) dopamine receptor is 398 nM; at D(4) dopamine receptor, 126 nM. This compound also registered a Selectivity in experiment [1] of 3.

Turning to `CCC(C)(C)C(=O)NCCCCN1CCN(c2ccc(Cl)cc2)CC1`, the values for the Ki on D(2) dopamine receptor and at D(4) dopamine receptor were 1000 nM and 15.8 nM, respectively. Further, the Selectivity in experiment [1] was determined as 63.

As to `CC(C)(C)C(=O)NCCCCN1CCN(c2ccc(F)cc2)CC1`, the values for the Ki on D(2) dopamine receptor and on D(4) dopamine receptor were 2000 nM and 126 nM, respectively. In experiment [1], the Selectivity was 15.

For the compound `COc1ccccc1N1CCN(CCCCNC(=O)C(C)(C)C)CC1`, the figures for the Ki at D(2) dopamine receptor and at D(4) dopamine receptor were 20 nM and 12.6 nM, respectively. This compound had a Selectivity in experiment [1] of 2.

As for `O=C(NCCCCN1CCN(c2ccc(Cl)cc2)CC1)C12CC3CC(CC(C3)C1)C2`, the values for the Ki at D(2) dopamine receptor and at D(4) dopamine receptor were 631 nM and 20 nM, respectively. Besides, the Selectivity in experiment [1] came out at 30.

Take `O=C(NCCN1CCN(c2ccc(Cl)cc2)CC1)C12CC3CC(CC(C3)C1)C2`: the Ki at D(2) dopamine receptor is 398 nM; on D(4) dopamine receptor, 5.01 nM. The Selectivity in experiment [1] turned out to be 80.

Consider `CC(C)(C)C(=O)NCCCN1CCN(c2ccc(Cl)cc2)CC1`, for which the Ki on D(2) dopamine receptor is greater than 10000 nM; at D(4) dopamine receptor it was 200 nM. Also, the Selectivity in experiment [1] is greater than 50.

At D(4) dopamine receptor, `CCC(C)(C)C(=O)NCCN1CCN(c2ccc(Cl)cc2)CC1` showed a Ki of 7.94 nM. Also, the Selectivity in experiment [1] stood at 320.

For the compound `CC(C)(C)C(=O)NCCCCN1CCN(c2ccccc2)CC1`, the Ki at D(2) dopamine receptor is 794 nM; at D(4) dopamine receptor, 316 nM. Also, the Selectivity in experiment [1] stood at 3.

With `CC(C)(C)C(=O)NCCCCN1CCN(c2ccc(C(F)(F)F)cc2)CC1`, the values for the Ki on D(2) dopamine receptor and on D(4) dopamine receptor were 3980 nM and 50.1 nM, respectively. Besides, the Selectivity in experiment [1] was 80.

Regarding `CC(C)(C)C(=O)NCCCCN1CCN(c2ccccc2Cl)CC1`, the Ki at D(2) dopamine receptor is 63.1 nM; at D(4) dopamine receptor, 79.4 nM. Also, the Selectivity in experiment [1] stood at 1.

`CC1(C(=O)NCCCCN2CCN(c3ccc(Cl)cc3)CC2)CCCCC1`: the Ki is 1000 nM at D(2) dopamine receptor and 10 nM at D(4) dopamine receptor. Further, the Selectivity in experiment [1] stood at 100.

`CC(C)(C)C(=O)NCCCCN1CCN2c3ccc(Cl)cc3CCC2C1` (stereo not drawn): the results for the Ki at D(2) dopamine receptor and at D(4) dopamine receptor were 398 nM and 63.1 nM, respectively.

Regarding `O=C(NCCCCN1CCN(c2ccc(Cl)cc2)CC1)c1ccccc1`, the Ki at D(2) dopamine receptor is 398 nM; at D(4) dopamine receptor, 158 nM. The compound also showed a Selectivity in experiment [1] of 3.

Consider `CCCCC(C)(C)C(=O)NCCN1CCN(c2ccc(Cl)cc2)CC1`, for which the Ki was 1580 nM on D(2) dopamine receptor and 31.6 nM on D(4) dopamine receptor. Besides, the Selectivity in experiment [1] is 50.

`COc1cc(Cl)ccc1N1CCN(CCCCNC(=O)C(C)(C)C)CC1`: the Ki on D(2) dopamine receptor was 158 nM; on D(4) dopamine receptor, 15.8 nM. The Selectivity in experiment [1] was found to be 10.

(Values after ChEMBL document CHEMBL1129089, “N-(substituted-phenyl) piperazines: antagonists with high binding and functional selectivity for dopamine D4 receptors” (Bioorg Med Chem Lett, 1996).)
